These results are taken from article PMC11366232, “Metabolites profiling of Sapota fruit pulp via a multiplex approach of gas and ultra performance liquid chromatography/mass spectroscopy in relation to its lipase inhibition effect” (PeerJ, 2024).

Experiment [1] addresses T1, porcine pancreatic lipase (PL) enzyme type II (Sus scrofa, UniProt P00591).
T1 construct: gene PNLIP
T1 sequence (P00591 1-450): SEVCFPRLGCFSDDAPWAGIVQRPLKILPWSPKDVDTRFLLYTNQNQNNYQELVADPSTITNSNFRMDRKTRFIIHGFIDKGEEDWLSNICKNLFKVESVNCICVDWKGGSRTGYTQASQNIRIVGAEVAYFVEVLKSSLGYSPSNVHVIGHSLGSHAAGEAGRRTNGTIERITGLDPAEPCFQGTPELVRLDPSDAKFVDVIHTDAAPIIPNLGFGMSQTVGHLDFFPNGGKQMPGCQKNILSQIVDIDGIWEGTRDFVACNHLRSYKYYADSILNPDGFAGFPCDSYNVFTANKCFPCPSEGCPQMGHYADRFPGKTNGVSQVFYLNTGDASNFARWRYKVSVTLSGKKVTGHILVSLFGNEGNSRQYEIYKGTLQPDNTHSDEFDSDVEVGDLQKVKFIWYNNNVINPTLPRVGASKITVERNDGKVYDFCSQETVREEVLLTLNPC
As to the kind of experiment: p-nitrophenyl butyrate hydrolysis, absorbance at […] nm. It counts as biochemical. As to conditions: unreliable (a separate IC50 is printed for each sample concentration; this row is the 5 mg/mL one); crude enzyme; pNPB 10 mM stock in acetonitrile; Tris-HCl pH 7.4; 37 °C; 5 min preincubation.

In another experiment the test system is T2, yeast α-glucosidase.
T2 construct: gene MAL12; commercial native enzyme, Sigma-Aldrich; assay text says yeast, reagent list says intestinal
The experiment can be described thus: p-nitrophenyl alpha-D-glucopyranoside hydrolysis, absorbance at […] nm. The class given is biochemical. As to conditions: unreliable (a separate IC50 is printed for each sample concentration; this row is the 5 mg/mL one); 5 mM pNPG; 100 mM phosphate pH 6.8; 37 °C; 20 min; enzyme source contradictory (yeast or intestinal).

Consider `CCCCCCCCCCC[C@@H](C[C@@H]1OC(=O)[C@H]1CCCCCC)OC(=O)[C@H](CC(C)C)NC=O` [Orlistat], for which the “Pancreatic Lipase (PL) Inhibition Assay / Orlistat” value in experiment [1] was 0.08 mg/mL. With `C[C@H]1O[C@H](O[C@H]2[C@H](O)[C@@H](O)[C@@H](O[C@H]3[C@H](O)[C@@H](O)C(O)O[C@@H]3CO)O[C@@H]2CO)[C@H](O)[C@@H](O)[C@@H]1N[C@H]1C=C(CO)[C@@H](O)[C@H](O)[C@H]1O` (some centres unmarked) [Acarbose], the “α-Glucosidase inhibitory Assay / Acarbose” value in the experiment with yeast α-glucosidase was 0.16 mg/mL.
